The values that follow come from patent publication US11492386B2, “Parathyroid hormone-anti-RANKL antibody fusion compounds” (Eli Lilly and Company, priority 2016, dated 2022).

In the experiment the test system is orchidectomized murine model. Kind of experiment: In vivo efficacy (BMD and BMC by qCT) in orchidectomized murine model. On the set-up: species or system mice. The following applies: 5 μg/kg daily sc, two weeks. How it is done:
Effects on bone mass density and bone mineral content, in vivo, are assessed using an orchidectomized murine model. Sixteen week old […] C57/B6 mice (Harlan, Indianapolis, Ind.) are orchidectomized (or vehicle control group, n=6) and maintained on a 12 hour light/dark cycle at 22° C. with ad lib access to food (TD 2014 with 0.72% Ca and 0.61% P, Vit. D 0.99 IU/g, Teklad, Madison, Wis.) and water. Osteopenia is established in the orchidectomized mice by allowing mice to lose bone mass for a six-week period.
Following a six-week osteopenia-establishing period, mice are divided into treatment groups and a vehicle PBS control group. […]
Bone mass density (BMD) of distal femur and bone mineral content (BMC) of lumbar vertebra are assessed by quantitative computed tomography (qCT) using Aloka LaTheta LTC-100 model CT scanner. […]

On to `CC[C@H](C)[C@H](NC(=O)[C@H](CCC(=O)O)NC(=O)[C@H](CO)NC(=O)[C@@H](NC(=O)[C@@H](N)CO)C(C)C)C(=O)N[C@@H](CCC(N)=O)C(=O)N[C@@H](CC(C)C)C(=O)N[C@@H](CCSC)C(=O)N[C@@H](Cc1c[nH]cn1)C(=O)N[C@@H](CC(N)=O)C(=O)N[C@@H](CC(C)C)C(=O)NCC(=O)N[C@@H](CCCCN)C(=O)N[C@@H](Cc1c[nH]cn1)C(=O)N[C@@H](CC(C)C)C(=O)N[C@@H](CC(N)=O)C(=O)N[C@@H](CO)C(=O)N[C@@H](CCSC)C(=O)N[C@@H](CCC(=O)O)C(=O)N[C@@H](CCCNC(=N)N)C(=O)N[C@H](C(=O)N[C@@H](CCC(=O)O)C(=O)N[C@@H](Cc1c[nH]c2ccccc12)C(=O)N[C@@H](CC(C)C)C(=O)N[C@@H](CCCNC(=N)N)C(=O)N[C@@H](CCCCN)C(=O)N[C@@H](CCCCN)C(=O)N[C@@H](CC(C)C)C(=O)N[C@@H](CCC(N)=O)C(=O)N[C@@H](CC(=O)O)C(=O)N[C@H](C(=O)N[C@@H](Cc1c[nH]cn1)C(=O)N[C@@H](CC(N)=O)C(=O)N[C@@H](Cc1ccccc1)C(=O)N[C@H](C(=O)N[C@@H](C)C(=O)N[C@@H](CC(C)C)C(=O)NCC(=O)O)C(C)C)C(C)C)C(C)C` [PTH Peptide, reference compound], for which the “Distal-Femur (% BMD change)” value was determined as 16% and the “Lumbar Vertebra (% BMC change)” value is given as 1%.
